Data: ChEMBL document CHEMBL4651402, “Screening of ~5500 FDA-approved drugs and clinical candidates for anti-SARS-CoV-2 activity” (2021)

Test system: SARS-CoV-2
Test: microbe, parasite or virus in culture
Settings: Severe acute respiratory syndrome coronavirus 2, Vero C1008, 48 h

O=C(CCNNC(=O)c1ccncc1)NCc1ccccc1 [NIALAMIDE]
IC50: > 20 µM
IC50 (read-out: pIC50 (converted)): > 20 µM

CC/C(=C(\c1ccccc1)c1ccc(OCCN(C)C)cc1)c1ccccc1 [TAMOXIFEN]
IC50: > 20 µM
IC50 (read-out: pIC50 (converted)): > 20 µM

CC(=O)O[C@H]1CC[C@@]2(C)C(CC[C@]3(C)C2C(=O)C=C2[C@H]4C[C@@](C)(C(=O)O)CC[C@]4(C)CC[C@]23C)C1(C)C (stereo not given in full)
IC50: > 20 µM
IC50 (read-out: pIC50 (converted)): > 20 µM

CCOC(=O)C1=C[C@]2(CC)CCCN3CCc4c(n1c1ccccc41)[C@@H]32 [VINPOCETINE]
IC50: > 20 µM
IC50 (read-out: pIC50 (converted)): > 20 µM

C/C(O)=C(\C#N)C(=O)Nc1ccc(C(F)(F)F)cc1 [TERIFLUNOMIDE]
IC50: > 20 µM
IC50 (read-out: pIC50 (converted)): > 20 µM

CCOC(=O)C1=C(C)NC(C)=C(C(=O)OCC)C1c1cccc2nonc12 [DARODIPINE]
IC50: > 20 µM
IC50 (read-out: pIC50 (converted)): > 20 µM

COc1cc(NC(=O)Nc2cccc(CNC(=O)O[C@H]3CCOC3)c2)ccc1-c1cnco1 [MERIMEPODIB]
IC50: > 20 µM
IC50 (read-out: pIC50 (converted)): > 20 µM

COc1ccc(-c2ccc(Cn3c(CC(C)(C)C(=O)O)c(SC(C)(C)C)c4cc(OCc5ccccn5)ccc43)cc2)cn1
IC50: > 20 µM
IC50 (read-out: pIC50 (converted)): > 20 µM

NS(=O)(=O)OC[C@@H]1C[C@@H](n2ccc3c(N[C@H]4CCc5ccccc54)ncnc32)C[C@@H]1O [PEVONEDISTAT]
IC50: > 20 µM
IC50 (read-out: pIC50 (converted)): > 20 µM

CCC(=O)N(c1ccc(Cl)c(Cl)c1)[C@@H]1CCC[C@H]1N(C)C
IC50: > 20 µM
IC50 (read-out: pIC50 (converted)): > 20 µM

CC(C)c1nc(N(C)S(C)(=O)=O)nc(-c2ccc(F)cc2)c1/C=C/C(O)CC(O)CC(=O)O (stereo not given)
IC50: > 20 µM
IC50 (read-out: pIC50 (converted)): > 20 µM

O=C(O)C1(c2ccc3c(c2)OC[C@H](Cc2ccc(-c4ccccc4)cc2)[C@H]3O)CCCC1
IC50: > 20 µM
IC50 (read-out: pIC50 (converted)): > 20 µM

Cn1c(=O)c2c(ncn2CC(O)CO)n(C)c1=O (stereo not given) [DYPHYLLINE]
IC50: > 20 µM
IC50 (read-out: pIC50 (converted)): > 20 µM

OCCN1C[C@H](O)[C@@H](O)[C@H](O)[C@H]1CO [MIGLITOL]
IC50: > 20 µM
IC50 (read-out: pIC50 (converted)): > 20 µM

O=C(O)c1cc(=O)[nH]c(=O)[nH]1 [OROTIC ACID]
IC50: > 20 µM
IC50 (read-out: pIC50 (converted)): > 20 µM

CN(C)C[C@H]1CCCC[C@]1(O)c1cccc(O)c1 [O-DESMETHYL TRAMADOL]
IC50: > 100 µM
IC50 (read-out: pIC50 (converted)): > 100 µM

CCC(N)C(O)c1ccc(O)c(O)c1 (stereo not given) [ETHYLNOREPINEPHRINE]
IC50: > 20 µM
IC50 (read-out: pIC50 (converted)): > 20 µM

NS(=O)(=O)c1ccc(N2CCN(CC[C@@H]3OCCc4ccccc43)CC2)cc1 [SONEPIPRAZOLE]
IC50: > 20 µM
IC50 (read-out: pIC50 (converted)): > 20 µM

CC[N+]1(C)CCCC(OC(=O)C(O)(c2ccccc2)c2ccccc2)C1 (stereo not given) [PIPENZOLATE]
IC50: > 20 µM
IC50 (read-out: pIC50 (converted)): > 20 µM

O=C(NCCN1CCN(c2cccc3c2OC[C@@H](CO)O3)CC1)c1ccc(F)cc1
IC50: > 20 µM
IC50 (read-out: pIC50 (converted)): > 20 µM

Cc1ccc(COC(=O)N2CC[C@H](CNc3ncccn3)[C@H](F)C2)cc1 [RISLENEMDAZ]
IC50: > 20 µM
IC50 (read-out: pIC50 (converted)): > 20 µM

CN(C)[C@@H]1C(O)=C(C(N)=O)C(=O)[C@@]2(O)C(O)=C3C(=O)c4c(O)ccc(Cl)c4[C@@](C)(O)C3C[C@@H]12 (stereo not given in full)
IC50: > 20 µM
IC50 (read-out: pIC50 (converted)): > 20 µM

O=c1cccc2n1CC1CC2CN2CCCCC12 (stereo not given)
IC50: > 20 µM
IC50 (read-out: pIC50 (converted)): > 20 µM

COc1ccc2c3c1OC1C(OC(C)=O)=CCC4C(C2)N(C)CCC314 (stereo not given)
IC50: > 20 µM
IC50 (read-out: pIC50 (converted)): > 20 µM

Cc1ccc(C)c(OCCCC(C)(C)C(=O)O)c1 [GEMFIBROZIL]
IC50: > 20 µM
IC50 (read-out: pIC50 (converted)): > 20 µM

O=C(O)c1cc(O)c(O)c(O)c1 [GALLIC ACID]
IC50: > 20 µM
IC50 (read-out: pIC50 (converted)): > 20 µM

CC(=O)NC[C@H]1CN(c2ccc(N3CCOCC3)c(F)c2)C(=O)O1 [LINEZOLID]
IC50: > 20 µM
IC50 (read-out: pIC50 (converted)): > 20 µM

CC[C@H](C)C[C@H](C)CCCCCCCCC(=O)N[C@H]1C[C@@H](O)[C@H](NCCN)NC(=O)[C@@H]2[C@@H](O)CCN2C(=O)[C@H]([C@H](O)CCN)NC(=O)C([C@H](O)[C@@H](O)c2ccc(O)cc2)NC(=O)[C@@H]2C[C@@H](O)CN2C(=O)C([C@@H](C)O)NC1=O (stereo not given in full)
IC50: > 20 µM
IC50 (read-out: pIC50 (converted)): > 20 µM

O=C1NC(=O)[C@H](c2cn3c4c(cccc24)CCC3)[C@H]1c1c[nH]c2ccccc12
IC50: > 20 µM
IC50 (read-out: pIC50 (converted)): > 20 µM

CC1(C)Cc2c(-c3ccccc3)c(-c3ccc(Cl)cc3)c(CC(=O)O)n2C1 [LICOFELONE]
IC50: > 20 µM
IC50 (read-out: pIC50 (converted)): > 20 µM

CN1CCc2cc3c(cc2[C@H]1[C@@H]1OC(=O)c2c1ccc1c2OCO1)OCO3 [BICUCULLINE]
IC50: > 20 µM
IC50 (read-out: pIC50 (converted)): > 20 µM

CN1CC[C@]23c4c5ccc(O)c4O[C@H]2C(=O)C=C[C@@]3(O)C1C5
IC50: > 20 µM
IC50 (read-out: pIC50 (converted)): > 20 µM

CC12C=CC(=O)C=C1C(F)CC1C2C(O)CC2(C)C1CCC2(O)C(=O)CO (stereo not given)
IC50: > 20 µM
IC50 (read-out: pIC50 (converted)): > 20 µM

Cc1ccc2c(c1)[C@H]1CN(C)CC[C@H]1N2 [STOBADINE]
IC50: > 20 µM
IC50 (read-out: pIC50 (converted)): > 20 µM

Cn1c(=O)cc(N2CCC[C@@H](N)C2)n(Cc2ccccc2C#N)c1=O [ALOGLIPTIN]
IC50: > 20 µM
IC50 (read-out: pIC50 (converted)): > 20 µM

CCCN(CCC)CCc1ccc(OC)c(OCCc2ccccc2)c1
IC50: > 20 µM
IC50 (read-out: pIC50 (converted)): > 20 µM

CC[N+](C)(C)c1cccc(O)c1 [EDROPHONIUM]
IC50: > 20 µM
IC50 (read-out: pIC50 (converted)): > 20 µM

C[C@]12CCC(=O)C=C1CC[C@@H]1[C@@H]2CC[C@]2(C)C(=O)CC[C@@H]12 [ANDROSTENEDIONE]
IC50: > 20 µM
IC50 (read-out: pIC50 (converted)): > 20 µM

Cc1cc(C(C#N)c2ccc(Cl)cc2)c(Cl)cc1NC(=O)c1cc(I)cc(I)c1O (stereo not given) [CLOSANTEL]
IC50: > 20 µM
IC50 (read-out: pIC50 (converted)): > 20 µM

C=C[C@@H]1CN2CCC1C[C@@H]2[C@H](O)c1ccnc2ccccc12 (stereo not given in full)
IC50: > 20 µM
IC50 (read-out: pIC50 (converted)): > 20 µM

CCN(CC)CC#CCOC(=O)[C@@](O)(c1ccccc1)C1CCCCC1 [ESOXYBUTYNIN]
IC50: > 20 µM
IC50 (read-out: pIC50 (converted)): > 20 µM

CC(O)(CC(=O)O)CC(=O)O [MEGLUTOL]
IC50: > 20 µM
IC50 (read-out: pIC50 (converted)): > 20 µM

CCN(CC)CCNC(=O)COc1ccc(Cl)cc1 [CLOFEXAMIDE]
IC50: > 20 µM
IC50 (read-out: pIC50 (converted)): > 20 µM

CCOC(=O)O[C@]1(C(=O)COC(=O)CC)CC[C@H]2[C@@H]3CCC4=CC(=O)C=C[C@]4(C)[C@H]3[C@@H](O)C[C@@]21C [PREDNICARBATE]
IC50: > 20 µM
IC50 (read-out: pIC50 (converted)): > 20 µM

CCN(CCCc1ccccc1)CCCc1ccccc1 [ALVERINE]
IC50: > 20 µM
IC50 (read-out: pIC50 (converted)): > 20 µM

CN(C)CCc1c[nH]c2ccc(CS(=O)(=O)N3CCCC3)cc12 [ALMOTRIPTAN]
IC50: > 20 µM
IC50 (read-out: pIC50 (converted)): > 20 µM

CN1CC[C@]23CCCC[C@H]2[C@H]1Cc1ccc(O)cc13 [LEVORPHANOL]
IC50: > 20 µM
IC50 (read-out: pIC50 (converted)): > 20 µM

CCOC(=O)c1c(N)sc2c1CCN(Cc1ccccc1)C2 [TINORIDINE]
IC50: > 20 µM
IC50 (read-out: pIC50 (converted)): > 20 µM

CO[C@H](C)[C@](O)(C(=O)OCC1=CCN2CC[C@H](O)[C@@H]12)C(C)C [HELIOTRINE]
IC50: > 20 µM
IC50 (read-out: pIC50 (converted)): > 20 µM

CC(=O)OC1CCC2(C)C3CC(=O)C4(C)C(CC5O[C@]6(CCC(C)CO6)C(C)C54)C3CC[C@H]2C1 (stereo not given in full)
IC50: > 20 µM
IC50 (read-out: pIC50 (converted)): > 20 µM

O=C1OC(c2ccc(O)cc2)(c2ccc(O)cc2)c2ccccc21 [PHENOLPHTHALEIN]
IC50: > 20 µM
IC50 (read-out: pIC50 (converted)): > 20 µM

CC(O)CO (stereo not given) [PROPYLENE GLYCOL]
IC50: > 20 µM
IC50 (read-out: pIC50 (converted)): > 20 µM

O=C(N[C@@H]1CC[C@@H](c2cccc(F)c2F)CN(CC(F)(F)F)C1=O)N1CCC(n2c(=O)[nH]c3ncccc32)CC1 [TELCAGEPANT]
IC50: > 20 µM
IC50 (read-out: pIC50 (converted)): > 20 µM

CC(=O)Nc1ccc(OC(C)(C)C)cc1 [BUTACETIN]
IC50: > 20 µM
IC50 (read-out: pIC50 (converted)): > 20 µM

C[C@@H]1CCC[C@H](C)N1NC(=O)c1ccc(Cl)c(S(N)(=O)=O)c1 [CLOPAMIDE]
IC50: > 20 µM
IC50 (read-out: pIC50 (converted)): > 20 µM

CC(=O)Oc1cc(OC(C)=O)c2c(c1)O[C@H](c1ccc(OC(C)=O)c(OC(C)=O)c1)[C@@H](OC(C)=O)C2 [CATECHIN PENTAACETATE]
IC50: > 20 µM
IC50 (read-out: pIC50 (converted)): > 20 µM

Nc1ccccc1NC(=O)c1ccc(CNC(=O)OCc2cccnc2)cc1 [ENTINOSTAT]
IC50: > 20 µM
IC50 (read-out: pIC50 (converted)): > 20 µM

CN(C)c1ccc(-c2ccc3cc(OC[C@@H](O)CF)ccc3n2)cc1
IC50: > 20 µM
IC50 (read-out: pIC50 (converted)): > 20 µM

CC/C(=C(/CC)c1ccc(O)cc1)c1ccc(O)cc1 [DIETHYLSTILBESTROL]
IC50: > 20 µM
IC50 (read-out: pIC50 (converted)): > 20 µM

OC[C@H]1OC(O)[C@H](O)[C@@H](O)[C@@H]1O (stereo not given in full) [DEXTROSE]
IC50: > 20 µM
IC50 (read-out: pIC50 (converted)): > 20 µM
